According to PubChem BioAssay AID2060487 (Molecular Pharmacology Branch, DTP, NCI, 2025):

Tested on: 997537-175-T-J1-PDC complex spheroid viability
Test: Anticancer human tumor 997537-175-T-J1-PDC patient-derived colon adenocarcinoma cell line growth inhibition [GQUAD]
Details: for IC50: curve of first compound; for viability, T/C: stronger effect = lower value; active means viability on the fitted dose curve at most 10% of control; inactive means the rest
Outline: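 Viability of tumor cells grown as complex spheroids with endothelial and stromal cells, exposed to drug combinations. Top concentration at or near clinical Cmax (else 10 microM), diluted in half-log increments.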

[1] = second compound 0.0316 µM, first compound 0.0316 µM
[2] = second compound 0.0316 µM, first compound 0.316 µM
[3] = second compound 0.1 µM, first compound 0.0316 µM
[4] = second compound 0.1 µM, first compound 0.316 µM
[5] = second compound 0.316 µM, first compound 0.0316 µM
[6] = second compound 0.316 µM, first compound 0.316 µM
[7] = second compound 1 µM, first compound 0.0316 µM
[8] = second compound 1 µM, first compound 0.316 µM
[9] = second compound 3.16 µM, first compound 0.0316 µM
[10] = second compound 3.16 µM, first compound 0.316 µM
[11] = second compound 10 µM, first compound 0.0316 µM
[12] = second compound 10 µM, first compound 0.316 µM
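Further: spheroids exposed to the agents for 7 days.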
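Wherever viability, T/C is given: 100% = DMSO vehicle control viability.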

Cc1[nH]c2ccccc2c1CCNCc1ccc(/C=C/C(=O)NO)cc1 + Cc1[nH]c2ccc(F)cc2c1-c1nc2c3cccnc3c3ncccc3c2[nH]1
> 0.316 µM: IC50 (second compound 0.0316 µM) | IC50 (second compound 0.1 µM) | IC50 (second compound 0.316 µM) | IC50 (second compound 1 µM) | IC50 (second compound 3.16 µM) | IC50 (second compound 10 µM)
inactive: viability, T/C (second compound 0.0316 µM, first compound 0.000999 µM) 100% | viability, T/C (second compound 0.0316 µM, first compound 0.00316 µM) 103% | viability, T/C (second compound 0.0316 µM, first compound 0.00999 µM) 100% | viability, T/C [1] 106% | viability, T/C (second compound 0.0316 µM, first compound 0.0999 µM) 88.8% | viability, T/C [2] 93.2% | viability, T/C (second compound 0.1 µM, first compound 0.000999 µM) 89.3% | viability, T/C (second compound 0.1 µM, first compound 0.00316 µM) 108% | viability, T/C (second compound 0.1 µM, first compound 0.00999 µM) 92.8% | viability, T/C [3] 104% | viability, T/C (second compound 0.1 µM, first compound 0.0999 µM) 93.4% | viability, T/C [4] 95.5% | viability, T/C (second compound 0.316 µM, first compound 0.000999 µM) 92.1% | viability, T/C (second compound 0.316 µM, first compound 0.00316 µM) 111% | viability, T/C (second compound 0.316 µM, first compound 0.00999 µM) 92.4% | viability, T/C [5] 91% | viability, T/C (second compound 0.316 µM, first compound 0.0999 µM) 105% | viability, T/C [6] 97.1% | viability, T/C (second compound 1 µM, first compound 0.000999 µM) 98.4% | viability, T/C (second compound 1 µM, first compound 0.00316 µM) 95.1% | viability, T/C (second compound 1 µM, first compound 0.00999 µM) 101% | viability, T/C [7] 90.6% | viability, T/C (second compound 1 µM, first compound 0.0999 µM) 90.5% | viability, T/C [8] 84.8% | viability, T/C (second compound 3.16 µM, first compound 0.000999 µM) 93.2% | viability, T/C (second compound 3.16 µM, first compound 0.00316 µM) 84% | viability, T/C (second compound 3.16 µM, first compound 0.00999 µM) 82.1% | viability, T/C [9] 96.3% | viability, T/C (second compound 3.16 µM, first compound 0.0999 µM) 77.6% | viability, T/C [10] 80.7% | viability, T/C (second compound 10 µM, first compound 0.000999 µM) 83.2% | viability, T/C (second compound 10 µM, first compound 0.00316 µM) 88.7% | viability, T/C (second compound 10 µM, first compound 0.00999 µM) 73.2% | viability, T/C [11] 78.6% | viability, T/C (second compound 10 µM, first compound 0.0999 µM) 84.6% | viability, T/C [12] 69.5%

Cc1cccc(N(C)C(=O)C2C(O)CCN2c2nc(C)cc(C(F)(F)F)c2C#N)c1 (centres undefined) + Cc1cnc(CNC(=O)c2c(=O)c3ccc(N4CCCN(C)CC4)nc3n3c2sc2ccccc23)cn1
> 10 µM: IC50 (second compound 0.0316 µM) | IC50 (second compound 0.1 µM) | IC50 (second compound 0.316 µM) | IC50 (second compound 1 µM) | IC50 (second compound 3.16 µM) | IC50 (second compound 10 µM)
inactive: viability, T/C [1] 82.4% | viability, T/C (second compound 0.0316 µM, first compound 0.1 µM) 80.5% | viability, T/C [2] 89.2% | viability, T/C (second compound 0.0316 µM, first compound 1 µM) 97.2% | viability, T/C (second compound 0.0316 µM, first compound 3.16 µM) 82.3% | viability, T/C (second compound 0.0316 µM, first compound 10 µM) 98.5% | viability, T/C [3] 102% | viability, T/C (second compound 0.1 µM, first compound 0.1 µM) 94.2% | viability, T/C [4] 94.2% | viability, T/C (second compound 0.1 µM, first compound 1 µM) 67% | viability, T/C (second compound 0.1 µM, first compound 3.16 µM) 88.6% | viability, T/C (second compound 0.1 µM, first compound 10 µM) 92.4% | viability, T/C [5] 93.7% | viability, T/C (second compound 0.316 µM, first compound 0.1 µM) 75.2% | viability, T/C [6] 99.5% | viability, T/C (second compound 0.316 µM, first compound 1 µM) 73.8% | viability, T/C (second compound 0.316 µM, first compound 3.16 µM) 112% | viability, T/C (second compound 0.316 µM, first compound 10 µM) 84.3% | viability, T/C [7] 94.6% | viability, T/C (second compound 1 µM, first compound 0.1 µM) 98.5% | viability, T/C [8] 87.8% | viability, T/C (second compound 1 µM, first compound 1 µM) 88.4% | viability, T/C (second compound 1 µM, first compound 3.16 µM) 106% | viability, T/C (second compound 1 µM, first compound 10 µM) 99.7% | viability, T/C [9] 77.3% | viability, T/C (second compound 3.16 µM, first compound 0.1 µM) 103% | viability, T/C [10] 96% | viability, T/C (second compound 3.16 µM, first compound 1 µM) 93.4% | viability, T/C (second compound 3.16 µM, first compound 3.16 µM) 107% | viability, T/C (second compound 3.16 µM, first compound 10 µM) 87.7% | viability, T/C [11] 85.1% | viability, T/C (second compound 10 µM, first compound 0.1 µM) 114% | viability, T/C [12] 98.3% | viability, T/C (second compound 10 µM, first compound 1 µM) 95% | viability, T/C (second compound 10 µM, first compound 3.16 µM) 96.9% | viability, T/C (second compound 10 µM, first compound 10 µM) 86.7%
